Here are results for 37 compounds from patent US5138069A (E. I. Du Pont de Nemours and Company, priority 1988, dated 1992).

Bounds are passed on as bounds.

The assay has as its system Renal Hypertensive Rats. The assay can be described thus: Antihypertensive effects in renal hypertensive rats. The class given is in vivo. Particulars: Rattus norvegicus; for minimal effective dose at 10 mg/kg / minimal effective dose at 100 mg/kg: Table 25; for minimal effective dose at 10 mg/kg / minimal effective dose at 3 mg/kg: intravenous; for minimal effective dose at 10 mg/kg: 10 mg/kg or less; for minimal effective dose at 100 mg/kg / minimal effective dose at 30 mg/kg: oral; for minimal effective dose at 100 mg/kg: 100 mg/kg or less; for minimal effective dose at 3 mg/kg / minimal effective dose at 30 mg/kg: Table 26. The protocol:
This procedure increases blood pressure by increasing renin production with consequent elevation of AII levels. Compounds are administered orally at 100 mg/kg and/or intravenously via a cannula in the jugular vein at 10 mg/kg. Arterial blood pressure is continuously measured directly through a carotid artery cannula and recorded using a pressure transducer and a polygraph. Blood pressure levels after treatment are compared to pretreatment levels to determine the antihypertensive effects of the compounds (See Table 25).
Compounds listed in Table 26 were tested in the same manner as described for Table 25, except that in the test for antihypertensive effects in renal hypertensive rats, the compounds were administered orally at 30 mg/kg and intravenously at 3 mg/kg.

As usually defined, the minimal effective dose is the lowest level tested that produced the effect sought. With `CCCCc1nc(Cl)c(CO)n1Cc1ccc(-c2occc2C(=O)O)cc1` (single isomer, unassigned) [Example 178, 2-n-Butyl-1-[4-(3-carboxyfuran-2-yl)benzyl]-4-chloro-5-(hydroxymethyl)imidazole], the minimal effective dose at 10 mg/kg is under 10 mg/kg and the minimal effective dose at 100 mg/kg is under 100 mg/kg.

In turn, `CCCCc1nc(Cl)c(CC(=O)O)n1Cc1ccc(C(=O)O)cc1` [Example 1, 2-Butyl-1-(4-carboxybenzyl)-4-chloroimidazole-5-acetic acid] yielded a minimal effective dose at 10 mg/kg of under 10 mg/kg and a minimal effective dose at 100 mg/kg of over 100 mg/kg.

For `CCCCc1nc(Cl)c(CC(=O)OC)n1Cc1ccc(NC(=O)c2ccccc2C(=O)O)cc1` [Example 2, Methyl 2-butyl-1-[4-(2-carboxybenzamido)benzyl]-4-chloroimidazole-5-acetate], under “tested as sodium salt”, the minimal effective dose at 10 mg/kg was under 10 mg/kg and the minimal effective dose at 100 mg/kg was over 100 mg/kg.

As to `CCCCc1nc(Cl)c(COC)n1Cc1ccc(NC(=O)c2ccccc2C(=O)O)cc1` [Example 4, 2-Butyl-1-[4-(2-carboxybenzamido)benzyl]-4-chloro-5-(methoxymethyl)-imidazole], where the note is “tested as sodium salt”, the minimal effective dose at 10 mg/kg was under 10 mg/kg and the minimal effective dose at 100 mg/kg was over 100 mg/kg.

Regarding `CCCCc1nc(Cl)c(CC(=O)OC)n1Cc1ccc(NC(=O)c2c(F)c(F)c(F)c(F)c2C(=O)O)cc1` [Example 8], the minimal effective dose at 100 mg/kg (tested as sodium salt) was over 100 mg/kg.

For the compound `CCCCc1nc(Cl)c(COC)n1Cc1ccc(NC(=O)c2c(Cl)ccc(Cl)c2C(=O)O)cc1` [Example 17], for the setting “tested as sodium salt”, the minimal effective dose at 10 mg/kg was under 10 mg/kg and the minimal effective dose at 100 mg/kg is over 100 mg/kg.

`CCCCc1nc(Cl)c(COC)n1Cc1ccc(NC(=O)c2ccccc2S(=O)(=O)O)cc1` [Example 18a] returned a minimal effective dose at 3 mg/kg of under 3 mg/kg and a minimal effective dose at 30 mg/kg of under 30 mg/kg.

`CCCCc1nc(Cl)c(CO)n1Cc1ccc(-c2cccc(C(=O)O)c2)cc1` [Example 85, 1-[(3'-Carboxybiphenyl-4-yl)-methyl]-2-butyl-4-chloro-5-hydroxymethylimidazole] displayed a minimal effective dose at 10 mg/kg of under 10 mg/kg and a minimal effective dose at 100 mg/kg of under 100 mg/kg.

For the compound `CCCCc1nc(Cl)c(COC)n1Cc1ccc(-c2cccc(C(=O)O)c2)cc1` [Example 86, 1-[(3'-Carboxybiphenyl-4-yl)-methyl]-2-butyl-4-chloro-5-methoxymethylimidazole], the minimal effective dose at 10 mg/kg was under 10 mg/kg and the minimal effective dose at 100 mg/kg is over 100 mg/kg.

In turn, `CCCCc1nc(Cl)c(CO)n1Cc1ccc(-c2ccccc2-c2nnn[nH]2)cc1` [Example 89, 2-n-butyl-4-chloro-5-hydroxymethyl-1-[(2'-(1H-tetrazol-5-yl)biphenyl-4-yl)methyl]imidazole] gave a minimal effective dose at 10 mg/kg of under 10 mg/kg and a minimal effective dose at 100 mg/kg of under 100 mg/kg.

In the case of `CCCCc1nc(C(F)(F)F)c(CO)n1Cc1ccc(-c2ccccc2-c2nnn[nH]2)cc1` [Example 92B, 2-butyl-5-hydroxymethyl-1-[(2'-(1H-tetrazol-5-yl)biphenyl-4-yl)methyl]-4-trifluoromethylimidazole], the minimal effective dose at 3 mg/kg was under 3 mg/kg.

The compound `CCCSc1ncc(CO)n1Cc1ccc(-c2ccccc2C(=O)O)cc1` [Example 93, 1-[(2'-carboxybiphenyl-4-yl)-methyl]-2-propylthio-5-hydroxymethylimidazole] gave a minimal effective dose at 10 mg/kg of under 10 mg/kg and a minimal effective dose at 100 mg/kg of over 100 mg/kg.

For the compound `CCCCc1nc(Cl)c(COC)n1Cc1ccc(-c2ccccc2C(=O)O)cc1` [Example 98], where the note is “tested as sodium salt”, the minimal effective dose at 10 mg/kg is under 10 mg/kg and the minimal effective dose at 100 mg/kg was under 100 mg/kg.

`CCCCCCc1nc(Cl)c(CO)n1Cc1ccc(-c2ccccc2C(=O)O)cc1` [Example 110]: the minimal effective dose at 10 mg/kg is under 10 mg/kg and the minimal effective dose at 100 mg/kg was under 100 mg/kg.

For the compound `CCCCc1nc(Cl)c(COC(C)=O)n1Cc1ccc(-c2ccccc2C(=O)O)cc1` [Example 121], the minimal effective dose at 10 mg/kg is under 10 mg/kg and the minimal effective dose at 100 mg/kg was under 100 mg/kg.

The compound `CCCCc1nc(Br)c(CO)n1Cc1ccc(-c2ccccc2-c2nn[nH]n2)cc1` [Example 124C] came in with a minimal effective dose at 3 mg/kg of under 3 mg/kg and a minimal effective dose at 30 mg/kg of under 30 mg/kg.

As to `CCCCc1nc(I)c(CO)n1Cc1ccc(-c2ccccc2-c2nnn[nH]2)cc1` [Example 124L], the minimal effective dose at 3 mg/kg was under 3 mg/kg and the minimal effective dose at 30 mg/kg is under 30 mg/kg.

As to `CCCCc1nc(Cl)c(C=O)n1Cc1ccc(-c2ccccc2C(=O)O)cc1` [Example 125, 1-[(2'-carboxybiphenyl-4-yl)methyl]-2-butyl-4-chloroimidazole-5-carboxaldehyde], the minimal effective dose at 10 mg/kg is under 10 mg/kg and the minimal effective dose at 100 mg/kg is under 100 mg/kg.

Take `CC/C=C/c1nc(Cl)c(CO)n1Cc1ccc(-c2ccccc2C(=O)O)cc1` [Example 128, 1-[(2'-Carboxybiphenyl-4-yl)-methyl]-2-(1-trans-butenyl)-4-chloro-5-hydroxymethylimidazole]: the minimal effective dose at 10 mg/kg is under 10 mg/kg and the minimal effective dose at 100 mg/kg is under 100 mg/kg.

In the case of `CC/C=C/c1nc(Cl)c(C=O)n1Cc1ccc(-c2ccccc2C(=O)O)cc1` [Example 129, 1-[(2'-Carboxybiphenyl-4-yl)methyl]-2-(1-trans-butenyl)-4-chloroimidazole-5-carboxaldehyde], the minimal effective dose at 10 mg/kg is under 10 mg/kg and the minimal effective dose at 100 mg/kg is under 100 mg/kg.

For the compound `CCCc1nc(C(F)(F)C(F)(F)F)c(C=O)n1Cc1ccc(-c2ccccc2-c2nnn[nH]2)cc1` [Example 140G], the minimal effective dose at 30 mg/kg is under 30 mg/kg.

`CCCCc1nc(Cl)c(COC)n1Cc1ccc(-c2ccccc2NS(=O)(=O)C(F)(F)F)cc1` [Example 141, 1-[(2'-trifluoromethanesulfonamidobiphenyl-4-yl)methyl]-2-butyl-4-chloro-5-methoxymethylimidazole] came in with a minimal effective dose at 10 mg/kg of under 10 mg/kg and a minimal effective dose at 100 mg/kg of under 100 mg/kg.

Turning to `CCCCc1nc(Cl)c(CO)n1Cc1ccc(-c2ccccc2NS(=O)(=O)C(F)(F)F)cc1` [Example 144], the minimal effective dose at 10 mg/kg was under 10 mg/kg and the minimal effective dose at 100 mg/kg was under 100 mg/kg.

Turning to `CCCCc1nc(Cl)c(COC)n1Cc1ccc(-c2ccccc2C(=O)Nc2nnn[nH]2)cc1` [Example 173, 2-n-Butyl-4-chloro-5-methoxymethyl-1-[(2'-((tetrazol-5-yl)aminocarbonyl)biphenyl-4-yl)-methyl]imidazole], the minimal effective dose at 10 mg/kg (tested as sodium salt) was under 10 mg/kg.

For the compound `CCCCc1nc(Cl)c(CO)n1Cc1ccc(-c2ccccc2C(=O)NOC)cc1` [Example 180, 1-[(2'-Methoxyaminocarbonylbiphenyl-4-yl)methyl]-2-butyl-4-chloro-5-hydroxymethylimidazole], the minimal effective dose at 10 mg/kg is under 10 mg/kg and the minimal effective dose at 100 mg/kg is over 100 mg/kg.

In turn, `CCCCc1nc(Cl)c(CO)n1Cc1ccc(-c2ccccc2NC(=O)C(F)(F)F)cc1` [Example 183, 1-[(2'-Trifluoroacetamidobiphenyl-4-yl)methyl]-2-butyl-4-chloro-5-hydroxymethylimidazole] had a minimal effective dose at 10 mg/kg of under 10 mg/kg and a minimal effective dose at 100 mg/kg of over 100 mg/kg.

`CCCCc1nc(Cl)c(CO)n1Cc1ccc(Oc2ccccc2C(=O)O)cc1` [Example 184, 2-Butyl-4-chloro-1-[4-(2-carboxyphenoxy)benzyl]-5-hydroxymethylimidazole] had a minimal effective dose at 10 mg/kg of under 10 mg/kg and a minimal effective dose at 100 mg/kg of over 100 mg/kg.

With `CCCCc1nc(Cl)c(CO)n1Cc1ccc(Sc2ccccc2C(=O)O)cc1` [Example 185], the minimal effective dose at 10 mg/kg was under 10 mg/kg and the minimal effective dose at 100 mg/kg was over 100 mg/kg.

As for `CCCCc1ncc(CO)n1Cc1ccc(OCc2ccccc2C(=O)O)cc1` [Example 193, 1-[4-(2-Carboxybenzyloxy)-benzyl] -2-butyl-5-hydroxymethylimidazole], the minimal effective dose at 10 mg/kg is under 10 mg/kg and the minimal effective dose at 100 mg/kg was over 100 mg/kg.

`CCCCc1nc(Cl)c(CO)n1Cc1ccc(OCc2ccccc2C(=O)O)cc1` [Example 195] gave a minimal effective dose at 10 mg/kg of under 10 mg/kg and a minimal effective dose at 100 mg/kg of under 100 mg/kg.

With `CCCCc1nc(Cl)c(COC(C)=O)n1Cc1ccc(OCc2ccccc2C(=O)O)cc1` [Example 199], the minimal effective dose at 100 mg/kg was over 100 mg/kg.

With `CCCCc1nc(Cl)c(CO)n1Cc1ccc(C(=O)c2ccccc2C(=O)O)cc1` [Example 202, 2-Butyl-1-[4-(2-Carboxybenzoyl)benzyl]-4-chloro-5-(hydroxymethyl)imidazole], for the setting “tested as sodium salt”, the minimal effective dose at 10 mg/kg is under 10 mg/kg and the minimal effective dose at 100 mg/kg was over 100 mg/kg.

With `CCCCc1nc(CO)c(Cl)n1Cc1ccc(C(=O)c2ccccc2C(=O)O)cc1` [Example 203], under “tested as sodium salt”, the minimal effective dose at 10 mg/kg was under 10 mg/kg and the minimal effective dose at 100 mg/kg was under 100 mg/kg.

Take `CCCCc1nc(Cl)c(COC)n1Cc1ccc(C(=O)c2ccccc2C(=O)O)cc1` [Example 207]: under “tested as sodium salt”, the minimal effective dose at 10 mg/kg was under 10 mg/kg and the minimal effective dose at 100 mg/kg was under 100 mg/kg.

`CCCCc1nc(Cl)c(C(=O)O)n1Cc1ccc(-c2ccccc2-c2nn[nH]n2)cc1` [Example 252]: the minimal effective dose at 3 mg/kg was under 3 mg/kg and the minimal effective dose at 30 mg/kg is under 30 mg/kg.

For `CCCc1nc(C(F)(F)C(F)(F)F)c(C(=O)O)n1Cc1ccc(-c2ccccc2-c2nn[nH]n2)cc1` [Example 265C], the minimal effective dose at 3 mg/kg was under 3 mg/kg.

Consider `CCCCc1nc(Cl)c(CO)n1Cc1ccc(-c2ccccc2C(=O)NS(=O)(=O)c2ccccc2)cc1` [Example 318, 1-[(2'-(Benzenesulfonamidocarbonyl)biphenyl-4-yl)methyl]-2-butyl-4-chloro-5-hydroxymethylimidazole], for which the minimal effective dose at 10 mg/kg was under 10 mg/kg and the minimal effective dose at 100 mg/kg was over 100 mg/kg.
